Experimental data taken from PMC8187946, “Development of Agonist-Based PROTACs Targeting Liver X Receptor” (Frontiers in Chemistry, 2021).

Columns and labels:
LXRβ [1] = biological target: T1, LXRβ (Homo sapiens, UniProt P55055); assay: TR-FRET coactivator assay (positive control, parent agonist); format: binding
T1 construct: gene NR1H2
T1 sequence (P55055 1-460): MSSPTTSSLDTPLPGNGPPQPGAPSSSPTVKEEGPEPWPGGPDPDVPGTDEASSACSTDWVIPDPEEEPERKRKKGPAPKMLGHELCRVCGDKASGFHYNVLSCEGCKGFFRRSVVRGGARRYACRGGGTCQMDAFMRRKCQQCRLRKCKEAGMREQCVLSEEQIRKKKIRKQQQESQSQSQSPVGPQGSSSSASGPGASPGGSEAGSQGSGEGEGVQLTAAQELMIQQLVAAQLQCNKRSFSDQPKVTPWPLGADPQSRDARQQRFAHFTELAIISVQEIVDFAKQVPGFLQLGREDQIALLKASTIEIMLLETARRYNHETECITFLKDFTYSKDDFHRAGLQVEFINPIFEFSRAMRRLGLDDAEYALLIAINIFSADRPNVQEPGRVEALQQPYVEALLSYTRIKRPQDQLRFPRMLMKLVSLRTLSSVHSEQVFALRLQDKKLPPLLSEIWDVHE

LXRβ [2] = biological target: T1, LXRβ; assay: TR-FRET coactivator assay; format: binding

| SMILES | EC50 (LXRβ [1]) [µM] | EC50 (LXRβ [2]) [µM] |
| --- | --- | --- |
| O=C(O)Cc1cccc(OCCCN(Cc2cccc(C(F)(F)F)c2Cl)CC(c2ccccc2)c2ccccc2)c1 [GW3965] | 0.02 ± 0.0072 | – |
| Cc1ncsc1-c1ccc(CNC(=O)[C@@H]2C[C@@H](O)CN2C(=O)[C@@H](NC(=O)COCCOCCOCCOCCOCCNC(=O)Cc2cccc(OCCCN(Cc3cccc(C(F)(F)F)c3Cl)CC(c3ccccc3)c3ccccc3)c2)C(C)(C)C)cc1 [compound 3, GW3965-PEG5-VH032] | – | 0.031 ± 0.0044 |
